Measured values as given in patent publication US20240140957A1, “BRIDGED COMPOUNDS AS KRAS G12D INHIBITOR AND DEGRADER AND THE USE THEREOF” (BeiGene Switzerland GmbH, priority 2021, published 2024).

Columns and labels:
[1] = test system: pERK1/2 (THR202/TYR204) in AsPC-1 cells; experiment: pERK Assay (HTRF) in AsPC-1 cells; assay type: cell-based; settings: Homo sapiens, ASPC1, 2 h compound treatment
GDP-loaded WT KRAS = GDP-loaded WT KRAS (Homo sapiens, UniProt P01116); experiment: KRAS WT Probe Displacement Assay; assay type: binding; settings: WT KRAS 3 nM, biotinylated probe 1 60 nM; read-out: KRAS WT Probe Displacement Assay IC50
GDP-loaded KRAS G12D = GDP-loaded KRAS G12D (Homo sapiens, UniProt P01116, G12D); experiment: KRAS G12D Probe Displacement Assay; assay type: binding; settings: KRAS G12D 0.5 nM, biotinylated probe 2 4 nM; read-out: KRAS G12D Probe Displacement Assay IC50
Sequence of GDP-loaded KRAS G12D (P01116 1-188 isoform P01116-2 G12D): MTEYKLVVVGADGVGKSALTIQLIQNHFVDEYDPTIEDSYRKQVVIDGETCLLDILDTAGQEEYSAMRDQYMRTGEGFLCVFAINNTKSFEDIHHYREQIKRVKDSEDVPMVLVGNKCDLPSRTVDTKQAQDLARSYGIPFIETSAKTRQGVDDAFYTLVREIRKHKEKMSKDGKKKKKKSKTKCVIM

Sequence of GDP-loaded WT KRAS (P01116 1-188 isoform P01116-2): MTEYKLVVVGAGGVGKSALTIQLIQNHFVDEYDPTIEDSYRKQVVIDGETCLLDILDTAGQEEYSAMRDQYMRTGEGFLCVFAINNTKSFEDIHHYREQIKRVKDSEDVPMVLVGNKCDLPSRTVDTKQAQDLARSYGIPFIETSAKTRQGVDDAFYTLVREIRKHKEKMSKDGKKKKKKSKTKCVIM

Row | Structure (SMILES) | IC50 [1] [µM] | IC50 (GDP-loaded WT KRAS) [µM] | IC50 (GDP-loaded KRAS G12D) [µM]
1 | CCc1cc2c(N3CC4CCC(C3)N4)nc(OC[C@@]34CCCN3C[C@H](F)C4)nc2c(F)c1-c1ccc(F)c2sc(N)nc12 [Example E67, 4-(4-(3,8-diazabicyclo[3.2.1]octan-3-yl)-6-ethyl-8-fluoro-2-(((2R,7aS)-2-fluorotetrahydro-1H-pyrrolizin-7a(5H)-yl)methoxy)quinazolin-7-yl)-7-fluorobenzo[d]thiazol-2-amine] | 0.095 | 0.0099 | 0.00045
2 | CN(C)CC1(COc2nc(N3CC4CCC(C3)N4)c3cc(Cl)c(-c4ccc(F)c5sc(N)nc45)c(F)c3n2)CCC1 [Example E68, 4-(4-(3,8-diazabicyclo[3.2.1]octan-3-yl)-6-chloro-2-((1-((dimethylamino)-methyl)cyclobutyl)methoxy)-8-fluoroquinazolin-7-yl)-7-fluorobenzo[d]thiazol-2-amine] | 0.59 | 0.045 | 0.00058
3 | C=C(C)c1cc2c(N3CC4CCC(C3)N4)nc(OC[C@@]34CCCN3C[C@H](F)C4)nc2c(F)c1-c1ccc(F)c2sc(N)nc12 [Example E69, 4-(4-(3,8-diazabicyclo[3.2.1]octan-3-yl)-8-fluoro-2-(((2R,7aS)-2-fluorotetrahydro-1H-pyrrolizin-7a(5H)-yl)methoxy)-6-(prop-1-en-2-yl)quinazolin-7-yl)-7-fluorobenzo[d]thiazol-2-amine] | 0.216 | 0.072 | 0.00072
4 | CN(C)CC1(COc2nc(N3CC4CCC(C3)N4)c3cc(Cl)c(-c4ccc(F)c5sc(N)nc45)c(F)c3n2)CC1 [Example E70, 4-(4-(3,8-diazabicyclo[3.2.1]octan-3-yl)-6-chloro-2-((1-((dimethylamino)methyl)cyclopropyl)methoxy)-8-fluoroquinazolin-7-yl)-7-fluorobenzo[d]thiazol-2-amine] | 0.927 | 0.032 | 0.00035
5 | CC(C)c1cc2c(N3CC4CCC(C3)N4)nc(OC[C@@]34CCCN3C[C@H](F)C4)nc2c(F)c1-c1ccc(F)c2sc(N)nc12 [Example E71, 4-(4-(3,8-diazabicyclo[3.2.1]octan-3-yl)-8-fluoro-2-(((2R,7aS)-2-fluorotetrahydro-1H-pyrrolizin-7a(5H)-yl)methoxy)-6-isopropylquinazolin-7-yl)-7-fluorobenzo[d]thiazol-2-amine] | 0.137 | 0.0378 | 0.00059
6 | C[C@@H](CN1CCC(F)CC1(C)C)Oc1nc(N2CC3CCC(C2)N3)c2cc(C(F)(F)F)c(-c3ccc(F)c4sc(N)nc34)c(F)c2n1 (stereo partly drawn) [Example E72, 4-(4-(3,8-diazabicyclo[3.2.1]octan-3-yl)-8-fluoro-2-(((2S)-1-(4-fluoro-2,2-dimethylpiperidin-1-yl)propan-2-yl)oxy)-6-(trifluoromethyl)quinazolin-7-yl)-7-fluorobenzo[d]thiazol-2-amine] | 1.07 | 0.12 | 0.0039
7 | Cc1ccc(-c2c(C(F)(F)F)cc3c(N4CC5CCC(C4)N5)nc(OC[C@@]45CCCN4C[C@H](F)C5)nc3c2F)c2nc(N)sc12 [Example E73, 4-(4-(3,8-diazabicyclo[3.2.1]octan-3-yl)-8-fluoro-2-(((2R,7aS)-2-fluorotetrahydro-1H-pyrrolizin-7a(5H)-yl)methoxy)-6-(trifluoromethyl)quinazolin-7-yl)-7-methylbenzo[d]thiazol-2-amine] | 0.068 | 0.0155 | 0.00057
8 | Nc1nc2c(-c3c(C(F)(F)F)cc4c(N5CC6CC(C5)N6)nc(OC[C@@]56CCCN5C[C@H](F)C6)nc4c3F)ccc(F)c2s1 [Example E74, 4-(4-(3,6-diazabicyclo[3.1.1]heptan-3-yl)-8-fluoro-2-(((2R,7aS)-2-fluorotetrahydro-1H-pyrrolizin-7a(5H)-yl)methoxy)-6-(trifluoromethyl)quinazolin-7-yl)-7-fluorobenzo[d]thiazol-2-amine] | 0.349 | 0.0048 | 0.00042
9 | Nc1nc2c(-c3c(Cl)cc4c(N5CC6CCC(C5)N6)nc(OC[C@@]56CCCN5C[C@H](F)C6)nc4c3F)c(F)cc(F)c2s1 [Example E75, 4-(4-(3,8-diazabicyclo[3.2.1]octan-3-yl)-6-chloro-8-fluoro-2-(((2R,7aS)-2-fluorotetrahydro-H-pyrrolizin-7a(5H)-yl)methoxy)quinazolin-7-yl)-5,7-difluorobenzo[d]thiazol-2-amine] | 0.04 | 0.0018 | 0.00023
10 | Cc1c(-c2ccc(F)c3sc(N)nc23)c(C(F)(F)F)cc2c(N3CC4CCC(C3)N4)nc(OC[C@@]34CCCN3C[C@H](F)C4)nc12 [Example E76, 4-(4-(3,8-diazabicyclo[3.2.1]octan-3-yl)-2-(((2R,7aS)-2-fluorotetrahydro-1H-pyrrolizin-7a(5H)-yl)methoxy)-8-methyl-6-(trifluoromethyl)quinazolin-7-yl)-7-fluorobenzo[d]thiazol-2-amine] | 0.058 | 0.0048 | 0.00012
11 | Cc1cc(N)nc(-c2c(C(F)(F)F)cc3c(N4CC5CCC(C4)N5)nc(OC[C@@]45CCCN4C[C@H](F)C5)nc3c2F)c1C(F)(F)F [Example E77, 6-(4-(3,8-diazabicyclo[3.2.1]octan-3-yl)-8-fluoro-2-(((2R,7aS)-2-fluorotetrahydro-1H-pyrrolizin-7a(5H)-yl)methoxy)-6-(trifluoromethyl)quinazolin-7-yl)-4-methyl-5-(trifluoromethyl)pyridin-2-amine] | 0.122 | 0.033 | 0.00052
12 | Cc1c(F)c(N)nc(-c2c(Cl)cc3c(N4CC5CCC(C4)N5)nc(OC[C@@]45CCCN4C[C@H](F)C5)nc3c2F)c1C(F)(F)F [Example E78, 6-(4-(3,8-diazabicyclo[3.2.1]octan-3-yl)-6-chloro-8-fluoro-2-(((2R,7aS)-2-fluorotetrahydro-1H-pyrrolizin-7a(5H)-yl)methoxy)quinazolin-7-yl)-3-fluoro-4-methyl-5-(trifluoromethyl)pyridin-2-amine] | 0.159 | 0.101 | 0.00099
13 | Cc1cc(N)nc(-c2c(F)cc3c(N4CC5CCC(C4)N5)nc(OC[C@@]45CCCN4C[C@H](F)C5)nc3c2F)c1C(F)(F)F [Example E79, 6-(4-(3,8-diazabicyclo[3.2.1]octan-3-yl)-6,8-difluoro-2-(((2R,7aS)-2-fluorotetrahydro-1H-pyrrolizin-7a(5H)-yl)methoxy)quinazolin-7-yl)-4-methyl-5-(trifluoromethyl) pyridin-2-amine] | 0.153 | 0.178 | 0.0011
14 | Nc1cc(Cl)c(C(F)(F)F)c(-c2c(Cl)cc3c(N4CC5CCC(C4)N5)nc(OC[C@@]45CCCN4C[C@H](F)C5)nc3c2F)c1 [Example E80, 3-(4-(3,8-diazabicyclo[3.2.1]octan-3-yl)-6-chloro-8-fluoro-2-(((2R,7aS)-2-fluorotetrahydro-1H-pyrrolizin-7a(5H)-yl)methoxy)quinazolin-7-yl)-5-chloro-4-(trifluoromethyl)aniline] | 0.307 | 0.046 | 0.00066
15 | Oc1cccc(F)c1-c1c(Cl)cc2c(N3CC4CCC(C3)N4)nc(OC[C@@]34CCCN3C[C@H](F)C4)nc2c1F [Example E81, 2-(4-(3,8-diazabicyclo[3.2.1]octan-3-yl)-6-chloro-8-fluoro-2-(((2R,7aS)-2-fluorotetrahydro-1H-pyrrolizin-7a(5H)-yl)methoxy)quinazolin-7-yl)-3-fluorophenol] | 2.38 | 0.99 | 0.0069
16 | Nc1nc2c(-c3c(C(F)(F)F)cc4c(N5CC6CCC(C5)N6)nc(OC[C@@]56CCCN5C[C@H](F)C6)nc4c3Cl)ccc(Cl)c2s1 [Example E82, 4-(4-(3,8-diazabicyclo[3.2.1]octan-3-yl)-8-chloro-2-(((2R,7aS)-2-fluorotetrahydro-1H-pyrrolizin-7a(5H)-yl)methoxy)-6-(trifluoromethyl)quinazolin-7-yl)-7-chlorobenzo[d]thiazol-2-amine] | 0.064 | 0.005 | 0.0003
17 | Nc1nc2c(-c3c(C(F)(F)F)cc4c(N5CC6CCC(C5)N6)nc(OC[C@@]56CCCN5C[C@H](F)C6)nc4c3F)ccc(Cl)c2s1 [Example E83, 4-(4-(3,8-diazabicyclo[3.2.1]octan-3-yl)-8-fluoro-2-(((2R,7aS)-2-fluorotetrahydro-1H-pyrrolizin-7a(5H)-yl)methoxy)-6-(trifluoromethyl)quinazolin-7-yl)-7-chlorobenzo[d]thiazol-2-amine] | 0.061 | 0.0038 | 0.00013
18 | Nc1nc2c(-c3c(C(F)(F)F)cc4c(N5CC6CCC(C5)N6)nc(OC[C@@]56CCCN5C[C@H](F)C6)nc4c3F)c(F)cc(F)c2s1 [Example E84, 4-(4-(3,8-diazabicyclo[3.2.1]octan-3-yl)-8-fluoro-2-(((2R,7aS)-2-fluorotetrahydro-1H-pyrrolizin-7a(5H)-yl)methoxy)-6-(trifluoromethyl)quinazolin-7-yl)-5,7-difluorobenzo[d]thiazol-2-amine] | 0.028 | 0.0024 | 0.00036
19 | Nc1nc2c(-c3c(C(F)(F)F)cc4c(N5CC6CCC(C5)N6)nc(OC[C@@]56CCCN5C[C@H](F)C6)nc4c3F)cc(F)c(F)c2s1 [Example E85, 4-(4-(3,8-diazabicyclo[3.2.1]octan-3-yl)-8-fluoro-2-(((2R,7aS)-2-fluorotetrahydro-1H-pyrrolizin-7a(5H)-yl)methoxy)-6-(trifluoromethyl)quinazolin-7-yl)-6,7-difluorobenzo[d]thiazol-2-amine] | 0.124 | 0.0056 | 0.00021
